Laboratory results reported in the NIST ThermoML archive (doi:10.1021/acs.jced.6b00803).
± gives the expanded uncertainty stated by the source.

Conditions: 298.15 K; 101.33 kPa; Liquid; Vibrating tube method

mass density [kg/m3] | Compound
759.275 ± 3 | CCCCCCCCCCCCCC [tetradecane]
770.221 ± 3.1 | CCCCCCCCCCCCCCCC [hexadecane]
1051.1 ± 4.2 | CC(=O)OCc1ccccc1 [benzyl ethanoate]
984.742 ± 4 | CC(=O)CCc1ccccc1 [4-phenyl-2-butanone]
745.508 ± 3 | CCCCCCCCCCCC [dodecane]
